Assay: Storage stability of amorphous solifenacin succinate and premix compositions, purity and impurities by HPLC
Type: physicochemical
Conditions: triple laminated package, nitrogen atmosphere
Description: The spray-dried product was packaged in a triple laminated package (two polyethylene layers covered with a layer of aluminium foil) containing a nitrogen atmosphere and samples were analyzed for impurity content at the time of packaging and after 7 days of storage at 0-5° C., using high-performance liquid chromatography (HPLC). The results are tabulated below:
6. The dried solid was packed in a double polyethylene bag with a silica desiccant pouch and the package was exposed to 0-5° C. and room temperature (RT) conditions for 25 days, then was analyzed by XRD and HPLC. The analytical data are given below:
The solid prepared was packaged in a double polyethylene bag with a silica desiccant and exposed to 0-5° C. and room temperature (RT) conditions for 27 days, and then samples were analyzed by XRD and HPLC. The data are given below:
The dried solid was packaged in a double polyethylene bag with a silica desiccant and exposed to 0-5° C. conditions for 16 days. A sample was then analyzed by XRD and HPLC, giving the following results:
The solid prepared was packaged in a double polyethylene bag and exposed at 0-5° C. and at room temperature (RT) for 20 days. Samples were then analyzed by XRD and by HPLC, giving the data below:
The solid products of Examples 6A and 6B, similarly packaged and stored under 0-5° C. and RT conditions for about 7 months, were analyzed and the data are given below: […]

HSI (highest single impurity) (7th day of storage at 0-5° C.): 0.25 % of drug content | HSI (highest single impurity) (initial, at the time of packaging): 0.03 % of drug content
SMILES: O=C(O[C@H]1CN2CCC1CC2)N1CCc2ccccc2[C@@H]1c1ccccc1 [Example 2, Amorphous Solifenacin Succinate]

— patent publication US20100137358A1, “SOLIFENACIN COMPOSITIONS” (DR. REDDY'S LABORATORIES LTD., priority 1996, published 2010)
